Data set [1] can be described thus: Stability test of NAD (recovery test of NAD added to human pooled serum). The data set is classed as in vitro ADME. As for the experimental part:
NAD was added to 2250 μL of human pooled serum to make 50 μmol/L and incubated at refrigeration, 25° C. and 37° C. The NAD concentrations in serum were measured at 1, 2, and 19 hours after the start of incubation.
The NAD concentration of the sample (i.e., serum) was measured by the following procedure,
(§1) Three times the volume of 0.4 M trichloroacetic acid solution was added to the collected sample, mixed, and placed for 10 minutes under a static condition at room temperature. The mixture was then centrifuged, and the supernatant was collected as an NAD extract.
(§2) NAD in the extract was measured using a 7180 type Hitachi automatic analyzer (manufactured by Hitachi High-Tech Corporation). The measurement was performed by setting the first test solution (comprising a phosphate buffer (pH 7.0), 0.6 mM WST-8 and 1.7 U/mL glucose dehydrogenase (GLUCDH “Amano” 2 manufactured by Amano Enzyme Inc.) and the second test solution (comprising a phosphate buffer (pH 7.8), 320 mM D-glucose and 15 U/mL diaphorase (No. 46445003 manufactured by Oriental Yeast Co., Ltd.) using the measurement parameters as follows. • Analysis method . . . Rate A • Measurement wavelength (sub/main) . . . 600 nm/450 nm • Reaction duration . . . 10 minutes • Photometric points 27 to 34 • Sample solution (NAD extract solution) . . . 2 μL • R1 reagent . . . 120 μL • R2 reagent . . . 40 μL
(§3) That is, 2 AL of NAD extract and 120 μL of the first test solution were mixed and incubated at 37° C. for 4.5 min (photometric point 1 to 16), and 40 μL of the second test solution was added to start the reaction (photometric point 17). The value of an absorbance change per minute (ΔAbs/min) was calculated by subtracting an absorbance of water (blank) at the same photometric point from the absorbance value of the measured sample at 8 to 10 minutes (photometric point 27 to 34) after the start of reaction.
(§4) The NAD concentration of the sample was calculated from the calibration curve (the NAD concentration−the increase rate of absorbance (ΔAbs/min)) that was obtained beforehand by measuring multiple NAD solutions at predetermined concentrations.
FIG. 1 is a graph illustrating a time-course change of relative values (%) of the NAD concentration in serum under each incubation condition when the concentration at the time of NAD addition (0 hour) is set as 100%. When stored at 25° C. and 37° C., the NAD concentrations reached almost 0% within two hours.

For data set [2] the following is noted: after collection, suspended in a buffer solution for extraction, cooled in ice; cited from earlier work.
Data set [3] in a line: Stabilizing study of NAD in blood using NMN and NR. The note with it: rat whole blood, overnight at 25° C.
Experimental: Whole blood was collected from SD retired rats using EDTA-filled blood collection tubes. PBS (pH 6.0) comprising NMN and NR at 10 times the concentration shown in Table 3 was prepared as a 10× stabilizer for each. 450 μL of whole blood was transferred to a 1.5-mL centrifuge tube, and 50 μL of 10× stabilizer for each was added and mixed. NAD was added to each tube to make 100 µM and used as a measurement sample.
The NAD extraction and the NAD measurement were performed on each measurement sample after being placed overnight under a static condition overnight at 25° C., in the same manner according to Example 1. The relative value (%) of NAD concentration of each measured sample was calculated, wherein the concentration at the time of NAD addition (0 hour) was set as 100%.
Data set [4] can be described thus: Stabilizing study of NAD in blood using nicotinamide and NR. The following applies: rat whole blood, overnight at 25° C. As for the experimental part:
as §1, §2, §3, §4
Whole blood was collected from SD retired rats using EDTA-filled blood collection tubes, PBS (pH 6.0) comprising nicotinamide and NR at 10 times the concentration shown in Table 2 was prepared as a 10× stabilizer for each. 450 μL of whole blood was transferred to a 1.5-mL centrifuge tube, and 50 μL of a 10× stabilizer for each was added and mixed. NAD was added to each tube to make 100 µM and used as a measurement sample.
The NAD extraction and the NAD measurement were performed on each measurement sample after being placed overnight under a static condition at 25° C., in the same manner according to Example 1. The relative value (%) of NAD concentration of each measured sample was calculated, wherein the concentration at the time of NAD addition (0 hour) was set as 100%. […] It was confirmed that the amount of remaining NAD became higher as the amount of nicotinamide and NR increased.

Data set [5] in a line: Stabilizing study of NAD in blood using nicotinamide and NMN. The following applies: rat whole blood, overnight at 25° C. On the procedure:
as §1, §2, §3, §4
Whole blood was collected from SD retired rats using EDTA-filled blood collection tubes. PBS (pH 6.0) comprising nicotinamide and NMN at 10 times the concentration shown in Table 1 was prepared as a 10× stabilizer for each. 450 μL of whole blood was transferred to a 1.5-mL centrifuge tube, and 50 μL of a 10× stabilizer for each was added and mixed. NAD was added to each tube to make 100 µM and used as a measurement sample.
The NAD extraction and the NAD measurement were performed on each measurement sample after being placed overnight under a static condition at 25° C., in the same manner according to Example 1. The relative value (%) of NAD concentration of each measured sample was calculated, wherein the concentration at the time of NAD addition (0 hour) was set as 100%. […] It was confirmed that the amount of remaining NAD became higher as the amount of nicotinamide and NMN increased.

In the case of `NC(=O)c1ccc[n+]([C@@H]2O[C@H](COP(=O)([O-])OP(=O)(O)OC[C@H]3O[C@@H](n4cnc5c(N)ncnc54)[C@H](O)[C@@H]3O)[C@@H](O)[C@H]2O)c1` [NAD, nicotinamide adenine dinucleotide], the “relative value (%) of NAD concentration in serum (0 hour = 100%)” value in data set [1] (stored at 25° C., within two hours) is around 0%; in data set [1] (stored at 37° C., within two hours), around 0%; in data set [1] (stored at refrigeration, within 20 hours), around 0%. In addition, the “NAD concentration in serum relative to 0 hour” value in data set [1] (stored at refrigeration, within two hours) was “reduced by about half”. Besides, the “time for which a blood sample for NAD measurement is stable” value in data set [2] is 5 h.

Turning to `NC(=O)c1ccc[n+]([C@@H]2O[C@H](CO)[C@@H](O)[C@H]2O)c1` [NR, nicotinamide riboside], the “relative value (%) of NAD concentration (0 hour = 100%)” value in data set [3] (20 mM NR, 0 mM NMN) turned out to be 62.9%; in data set [3] (50 mM NR, 0 mM NMN) it was 71.2%; in data set [3] (100 mM NR, 0 mM NMN), 77.7%; in data set [4] (0 mM nicotinamide, 3 mM NR), 7.5%; in data set [4] (0 mM nicotinamide, 10 mM NR), 49.7%; in data set [4] (0 mM nicotinamide, 20 mM NR), 64.8%.

For `NC(=O)c1cccnc1` [Nicotinamide, nicotinamide], the “relative value (%) of NAD concentration (0 hour = 100%)” value is recorded as 7.4% in data set [5] (50 mM nicotinamide, 0 mM NMN); 6.6% in data set [5] (100 mM nicotinamide, 0 mM NMN); 13.7% in data set [5] (200 mM nicotinamide, 0 mM NMN); 7.8% in data set [4] (50 mM nicotinamide, 0 mM NR); 8.7% in data set [4] (100 mM nicotinamide, 0 mM NR); 10.8% in data set [4] (200 mM nicotinamide, 0 mM NR).

Regarding nicotinamide mononucleotide [NMN], the “relative value (%) of NAD concentration (0 hour = 100%)” value stood at 8.2% in data set [5] (0 mM nicotinamide, 3 mM NMN); 16.1% in data set [5] (0 mM nicotinamide, 10 mM NMN); 33.0% in data set [5] (0 mM nicotinamide, 20 mM NMN); 29.1% in data set [3] (0 mM NR, 20 mM NMN); 58.0% in data set [3] (0 mM NR, 50 mM NMN); 89.6% in data set [3] (0 mM NR, 100 mM NMN).

Source of the values: US20250101486A1, “METHOD AND COMPOSITION FOR STABILISING NICOTINAMIDE ADENINE DINUCLEOTIDE” (ORIENTAL YEAST CO., LTD., priority 2022, published 2025).
